Laboratory results from patent US20260193264A1, “BENZOYPARAZINE PYRAZINES AND THEIR USES” (FOGHORN THERAPEUTICS INC., priority 2022, published 2026).

What was measured:
[1] = biological target: T1, HiBit-BRG1 fusion protein in stable HeLa cell line expressing HiBit-BRG1 and LgBit (Homo sapiens, UniProt P51532); test: HiBiT-BRG1 cell-based degradation assay (Nano-Glo HiBiT, 24 h); settings: HeLa HiBit-BRG1/LgBit cells; for DC50: read-out: BRMG1 HiBit Degradation IC50; for Dmax: top dose 30 μM, read-out: BRG1 HiBit Degradation Maximum (%)
T1 construct: expressed in transfected cells
Method in brief: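 Stable HeLa line co-expressing HiBiT-BRG1 and LgBiT, compound-treated 24 h; luminescence read after Nano-Glo HiBiT lytic reagent. % degradation normalised between DMSO (high control) and 2 μM reference BRM/BRG1 degrader (low control).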

[2] = biological target: T2, HiBiT-BRM fusion protein in stable HeLa cell line (Homo sapiens, UniProt P51531); test: HiBiT-BRM cell-based degradation assay (Nano-Glo HiBiT Lytic Detection, 24 h); design: DC50: scale not given here; settings: HeLa HiBiT-BRM cells; for DC50: read-out: BRM HiBit Degradation IC50; for BRM HiBit Degradation Maximum (%): top dose 30 μM
T2 construct: expressed in transfected cells
Method in brief: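 Stable HiBiT-BRM HeLa cells were treated with 10-point 3-fold serial dilutions (30 μM final top dose, duplicate) for 24 h, then lysed with LgBiT-containing detection reagent and luminescence read. Degradation % was normalised to DMSO (high control) and 2 μM reference BRM/BRG1 degrader (low control).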

T2 sequence (P51531 whole entry, the tested form may be a part): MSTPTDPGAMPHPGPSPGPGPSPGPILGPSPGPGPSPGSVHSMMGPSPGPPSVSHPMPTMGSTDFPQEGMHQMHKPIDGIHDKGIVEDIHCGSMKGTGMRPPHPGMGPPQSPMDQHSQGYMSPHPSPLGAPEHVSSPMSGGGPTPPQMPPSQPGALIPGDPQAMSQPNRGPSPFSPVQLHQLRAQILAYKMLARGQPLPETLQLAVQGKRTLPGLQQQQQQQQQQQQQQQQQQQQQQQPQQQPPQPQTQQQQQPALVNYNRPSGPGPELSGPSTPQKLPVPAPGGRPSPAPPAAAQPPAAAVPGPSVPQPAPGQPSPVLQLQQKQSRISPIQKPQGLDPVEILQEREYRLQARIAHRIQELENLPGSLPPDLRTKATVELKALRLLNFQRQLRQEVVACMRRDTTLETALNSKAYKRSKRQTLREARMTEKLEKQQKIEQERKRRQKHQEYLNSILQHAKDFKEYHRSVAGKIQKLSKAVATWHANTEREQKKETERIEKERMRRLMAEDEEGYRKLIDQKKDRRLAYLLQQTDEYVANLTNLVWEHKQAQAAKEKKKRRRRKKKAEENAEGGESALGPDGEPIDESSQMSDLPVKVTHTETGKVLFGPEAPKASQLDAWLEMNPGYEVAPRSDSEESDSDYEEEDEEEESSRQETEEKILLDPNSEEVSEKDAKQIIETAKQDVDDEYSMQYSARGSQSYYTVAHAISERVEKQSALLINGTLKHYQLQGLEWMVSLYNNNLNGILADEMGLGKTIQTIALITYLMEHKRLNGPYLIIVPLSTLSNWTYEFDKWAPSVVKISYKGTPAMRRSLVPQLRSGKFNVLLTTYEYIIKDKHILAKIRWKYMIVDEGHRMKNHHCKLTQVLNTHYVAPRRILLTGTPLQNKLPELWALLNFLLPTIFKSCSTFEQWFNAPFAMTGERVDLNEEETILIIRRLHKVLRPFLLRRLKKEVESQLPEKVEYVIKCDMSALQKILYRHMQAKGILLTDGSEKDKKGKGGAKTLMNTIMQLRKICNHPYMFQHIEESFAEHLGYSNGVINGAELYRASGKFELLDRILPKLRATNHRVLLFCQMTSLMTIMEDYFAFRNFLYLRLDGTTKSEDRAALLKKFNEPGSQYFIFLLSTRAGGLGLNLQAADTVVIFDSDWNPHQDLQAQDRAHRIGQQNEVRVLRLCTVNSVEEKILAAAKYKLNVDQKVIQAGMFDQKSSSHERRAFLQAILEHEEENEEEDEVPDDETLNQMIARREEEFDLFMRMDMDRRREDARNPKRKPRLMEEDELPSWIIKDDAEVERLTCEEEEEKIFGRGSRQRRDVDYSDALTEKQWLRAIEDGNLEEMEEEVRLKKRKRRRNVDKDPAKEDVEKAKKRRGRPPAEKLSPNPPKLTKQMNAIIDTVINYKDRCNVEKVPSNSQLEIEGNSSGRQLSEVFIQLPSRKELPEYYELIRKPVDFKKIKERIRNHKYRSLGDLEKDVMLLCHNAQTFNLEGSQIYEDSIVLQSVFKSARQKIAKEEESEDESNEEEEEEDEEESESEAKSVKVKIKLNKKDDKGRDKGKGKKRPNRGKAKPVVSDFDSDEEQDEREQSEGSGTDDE
T1 sequence (P51532 whole entry, the tested form may be a part): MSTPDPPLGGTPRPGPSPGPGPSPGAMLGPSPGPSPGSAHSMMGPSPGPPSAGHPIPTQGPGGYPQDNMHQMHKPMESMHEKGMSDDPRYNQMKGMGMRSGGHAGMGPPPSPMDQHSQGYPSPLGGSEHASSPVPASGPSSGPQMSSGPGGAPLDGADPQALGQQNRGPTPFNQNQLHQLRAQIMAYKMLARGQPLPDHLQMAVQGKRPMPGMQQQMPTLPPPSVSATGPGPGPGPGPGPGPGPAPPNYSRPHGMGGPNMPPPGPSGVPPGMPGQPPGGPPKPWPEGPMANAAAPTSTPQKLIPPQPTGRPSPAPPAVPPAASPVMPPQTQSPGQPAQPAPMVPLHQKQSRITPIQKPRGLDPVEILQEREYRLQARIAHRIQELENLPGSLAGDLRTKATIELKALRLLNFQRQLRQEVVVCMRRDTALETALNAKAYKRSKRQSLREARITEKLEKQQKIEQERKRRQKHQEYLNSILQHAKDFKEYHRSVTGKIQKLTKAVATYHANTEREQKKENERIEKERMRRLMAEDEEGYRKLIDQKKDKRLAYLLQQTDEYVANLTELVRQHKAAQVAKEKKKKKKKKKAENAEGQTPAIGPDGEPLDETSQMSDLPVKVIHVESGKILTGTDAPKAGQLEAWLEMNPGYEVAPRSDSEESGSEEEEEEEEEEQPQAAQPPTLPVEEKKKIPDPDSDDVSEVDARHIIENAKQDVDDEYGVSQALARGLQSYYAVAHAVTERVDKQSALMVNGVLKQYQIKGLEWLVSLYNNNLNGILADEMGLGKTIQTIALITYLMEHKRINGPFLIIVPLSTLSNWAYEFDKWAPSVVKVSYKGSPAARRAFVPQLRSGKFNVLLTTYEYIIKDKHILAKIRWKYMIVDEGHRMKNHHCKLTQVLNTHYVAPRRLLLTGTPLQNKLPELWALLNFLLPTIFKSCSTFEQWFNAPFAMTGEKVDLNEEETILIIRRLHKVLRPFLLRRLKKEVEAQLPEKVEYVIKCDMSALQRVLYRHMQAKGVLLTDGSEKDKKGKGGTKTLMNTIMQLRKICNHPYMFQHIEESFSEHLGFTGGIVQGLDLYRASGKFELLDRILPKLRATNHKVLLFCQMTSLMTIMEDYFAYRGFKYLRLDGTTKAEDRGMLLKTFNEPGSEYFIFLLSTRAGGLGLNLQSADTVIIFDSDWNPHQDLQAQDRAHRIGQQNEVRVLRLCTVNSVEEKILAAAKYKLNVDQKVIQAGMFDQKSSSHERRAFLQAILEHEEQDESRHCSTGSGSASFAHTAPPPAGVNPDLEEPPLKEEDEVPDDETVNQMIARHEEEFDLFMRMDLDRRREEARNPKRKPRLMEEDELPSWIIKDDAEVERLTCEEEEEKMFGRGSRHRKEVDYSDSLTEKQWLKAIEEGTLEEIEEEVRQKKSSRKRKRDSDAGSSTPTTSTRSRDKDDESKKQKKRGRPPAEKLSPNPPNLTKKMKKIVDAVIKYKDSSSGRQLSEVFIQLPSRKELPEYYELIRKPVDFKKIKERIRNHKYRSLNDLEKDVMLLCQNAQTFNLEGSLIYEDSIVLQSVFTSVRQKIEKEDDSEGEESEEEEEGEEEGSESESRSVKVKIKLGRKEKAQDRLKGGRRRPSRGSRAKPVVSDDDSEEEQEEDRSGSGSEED

Question: `Cc1ncsc1-c1ccc([C@H](C)NC(=O)[C@@H]2C[C@@H](O)CN2C(=O)[C@H](C(C)C)n2cc(C3CC4(CC(c5ccc6nnc(-c7ccccc7O)cc6c5)C4)C3)nn2)cc1` (stereo partly drawn) [Compound 230, (2S,4R)-4-hydroxy-1-((S)-2-(4-(6-(3-(2-hydroxyphenyl)cinnolin-6-yl)spiro[3.3]heptan-2-yl)-1H-1,2,3-triazol-1-yl)-3-methylbutanoyl)-N-((S)-1-(4-(4-methylthiazol-5-yl)phenyl)ethyl)pyrrolidine-2-carboxamide] was tested. Which DC50 [1] did it give?
Answer: Its DC50 is > 10 nM.

Question: What about the Dmax [1] of the same compound?
Answer: The Dmax was > 75%.

Question: And the DC50 [2]?
Answer: Its DC50 is < 10 nM.

Question: And the “BRM HiBit Degradation Maximum (%)” value [2]?
Answer: The value was “A (“A” indicates maximum degradation ≥75%)”.

Question: `Cc1ncsc1-c1ccc([C@H](C)NC(=O)[C@@H]2C[C@@H](O)CN2C(=O)[C@@H](c2cc(N3CCC4(CC3)CC(N(C)c3ccc5cc(-c6ccccc6O)nnc5c3)C4)no2)C(C)C)cc1` [Compound 122, (2S,4R)-4-hydroxy-1-((R)-2-(3-(2-((3-(2-hydroxyphenyl)cinnolin-7-yl)(methyl)amino)-7-azaspiro[3.5]nonan-7-yl)isoxazol-5-yl)-3-methylbutanoyl)-N-((S)-1-(4-(4-methylthiazol-5-yl)phenyl)ethyl)pyrrolidine-2-carboxamide] was tested. Which DC50 [1] did it give?
Answer: The DC50 was < 10 nM.

Question: And the Dmax [1]?
Answer: The Dmax was > 75%.

Question: What about the DC50 [2] of the same compound?
Answer: Its DC50 is < 10 nM.

Question: What about the “BRM HiBit Degradation Maximum (%)” value [2] of the same compound?
Answer: Its value is “A (“A” indicates maximum degradation ≥75%)”.

Question: With `Cc1ncsc1-c1ccc([C@H](C)NC(=O)[C@@H]2C[C@@H](O)CN2C(=O)[C@H](C(C)C)n2cc(C3CC4(CC(c5ccc6cc(-c7ccccc7O)nnc6c5)C4)C3)nn2)cc1` (stereo partly drawn) [Compound 208, (2S,4R)-4-hydroxy-1-[(2S)-2-(4-{6-[3-(2-hydroxyphenyl)cinnolin-7-yl]spiro[3.3]heptan-2-yl}-1,2,3-triazol-1-yl)-3-methylbutanoyl]-N-[(1S)-1-[4-(4-methyl-1,3-thiazol-5-yl)phenyl]ethyl]pyrrolidine-2-carboxamide] as the compound, how does the DC50 [1] read?
Answer: Its DC50 is > 10 nM.

Question: What about the Dmax [1] of the same compound?
Answer: The Dmax was > 75%.

Question: And the DC50 [2]?
Answer: The DC50 was < 10 nM.

Question: What about the “BRM HiBit Degradation Maximum (%)” value [2] of the same compound?
Answer: Its value is “A (“A” indicates maximum degradation ≥75%)”.

Question: Which Dmax [1] does the source give for `CC(C)C(C(=O)N1C[C@H](O)C[C@H]1C(=O)NCC12CC(C1)C2)c1cc(N2CC3(CN(c4ccc5cc(-c6ccccc6O)nnc5c4)C3)C2)no1` (stereo partly drawn) [Compound 119, (2S,4R)-N-(bicyclo[1.1.1]pentan-1-ylmethyl)-4-hydroxy-1-(2-(3-(6-(3-(2-hydroxyphenyl)cinnolin-7-yl)-2,6-diazaspiro[3.3]heptan-2-yl)isoxazol-5-yl)-3-methylbutanoyl)pyrrolidine-2-carboxamide] here?
Answer: The Dmax was < 50%.

Question: What about the DC50 [2] of the same compound?
Answer: The DC50 was > 10 nM.

Question: What about the “BRM HiBit Degradation Maximum (%)” value [2] of the same compound?
Answer: Its value is “A (“A” indicates maximum degradation ≥75%)”.

Question: How did the Dmax [1] turn out when `Cc1ncsc1-c1ccc([C@H](C)NC(=O)[C@@H]2C[C@@H](O)CN2C(=O)[C@@H](c2cc(N3CC4(CC(c5cc6nnc(-c7ccccc7O)cc6cc5C#N)C4)C3)no2)C(C)C)cc1` [Compound 222, (2S,4R)-1-((R)-2-(3-(6-(6-cyano-3-(2-hydroxyphenyl)cinnolin-7-yl)-2-azaspiro[3.3]heptan-2-yl)isoxazol-5-yl)-3-methylbutanoyl)-4-hydroxy-N-((S)-1-(4-(4-methylthiazol-5-yl)phenyl)ethyl)pyrrolidine-2-carboxamide] was run?
Answer: Its Dmax is < 50%.

Question: What about the DC50 [2] of the same compound?
Answer: Its DC50 is < 10 nM.

Question: And the “BRM HiBit Degradation Maximum (%)” value [2]?
Answer: The value was “A (“A” indicates maximum degradation ≥75%)”.

Question: `Cc1ncsc1-c1ccc([C@H](C)NC(=O)[C@@H]2C[C@@H](O)CN2C(=O)[C@@H](c2cc(-c3cnc(N4CC5(CC(c6ccc7cc(-c8ccccc8O)nnc7c6)C5)C4)nc3)no2)C(C)C)cc1` [Compound 18] was tested. Which DC50 [1] did it give?
Answer: The DC50 was > 10 nM.

Question: And the Dmax [1]?
Answer: The Dmax was > 50%.

Question: What about the DC50 [2] of the same compound?
Answer: The DC50 was < 10 nM.

Question: And the “BRM HiBit Degradation Maximum (%)” value [2]?
Answer: The value was “A (“A” indicates maximum degradation ≥75%)”.
